Reference: patent publication US5008416A, “Organogermanium compound, process for the preparation of same as well as use thereof” (Sanwa Kagaku Kenkyusho Co., Ltd., priority 1989, dated 1991)
Where two headings read alike, the source gives them in different places.

Key:
[1] = test system: interferon (IFN) production; assay type: in vivo, mouse (BALB/c male); settings: for INF titer: lung supernatant, three days, mean ± standard error, n = 5
Lewis lung carcinoma = experiment: Anti-tumor effect, Lewis lung carcinoma (Pharmacological Experiment 6); assay type: in vivo, mouse (C57BL/6 male); settings: for Inhibition (development of solid tumor) / Tumor weight: 5 days, 14th day; for Tumor weight: mean ± standard deviation, n = 10
Experimental: An anti-tumor effect of the organogermanium compound according to the invention is examined.
C57BL/6 male mice (n=10) as experimental animals were subcutaneously implanted with 1×10^5 cells of Lewis lung carcinoma to form a solid tumor. The organogermanium compound (Example 4) dissolved in 4% bovine serum albumin was orally administered at the dose of 0.1, 1.0 and 10.0 mg/kg once a day for 5 days on days 1 to 5 after the tumor implantation.
On 14th day from the implantation, formed solid tumor was removed and weighed. An antitumor effect represented the inhibitory percent of the compound on the development of solid tumor.

Sarcoma 180 tumor cells = experiment: Anti-tumor effect, Sarcoma 180 (Pharmacological Experiment 7); assay type: in vivo, mouse (ICR male); settings: for Inhibition (development of solid tumor) / Tumor weight: 10 days, 20th day; for Tumor weight: mean ± standard error, n = 10
Experimental: An anti-tumor effect of the organogermanium compound according to the invention is examined to Sarcoma 180 tumor cells.
Sarcoma 180 tumor cells were subcutaneously implanted with 2×10^6cells to male ICR mice (n=10) as experimental animals to form a solid tumor. The organogermanium compound (Example 4) dissolved in 4% bovine serum albumin was orally administered at the dose of 0.1, 1.0 and 10.0 mg/kg once a day for 10 days on the day after the implantation.
On the 20th day from the implantation, formed solid tumor was removed and weighed. An antitumor effect represented the inhibitory percent of the compound on the development of solid tumor.

[2] = test system: Vaccinia virus (DI strain); assay type: in vivo, mouse (ddy male); settings: for Inhibition (pocks) / Number of pocks: 7th day; for Number of pocks: mean ± standard error, n = 10, (***) p < 0.001 vs Control
[3] = test system: acute liver injury induced by galactosamine (serum transaminases); experiment: Action to acute liver injury induced by galactosamine (Pharmacological Experiment 10); assay type: in vivo, rat (Wister male); settings: for s-GPT / s-GOT: 5 days, 48 hours, mean ± standard error, n = 10
Experimental: An action of the organogermanium compound of the invention to an acute liver injury to be induced by galactosamine, as an experimental model for liver injury is checked, through measurement of serum transaminases, as indexes.
To Wister male rats (n=10 for each group), galactosamine was administered into abdominal canal by a dose of 400 mg/kg at 2 times with an interval of 6 hours to induce a acute liver injury.
To the […] in each Test group, the compound according to the invention (Example 4) dissolved in 4% bovine serum albumin solution was orally administered by 0.1, 1.0 or 10.0 mg/kg/day over 5 days beginning from 3 days before the administration of galactosamine.
After having lapsed 48 hours from the first administration of galactosamine, a blood letting was carried out to measure GOT and GPT values in serum.

[4] = 1.0 mg/kg orally once a day, (*) p < 0.05 vs Control
[5] = 0.1 mg/kg (as printed in Table 8) orally

“Sodium 2-oxygermylethanesulfonate polymer [Example 4]” was tested, and the INF titer ([1]; 0.1 mg/kg orally) was 49.3 ± 5.3 IU/mg protein, the “IFN activity, times higher than the control group” value ([1]; 1.0 mg/kg orally) was “about 2.5 times” and the INF titer ([1]; 1.0 mg/kg orally, (**) p < 0.01 vs control) was 138.3 ± 17.1 IU/mg protein. The “IFN activity, times higher than the control group” value ([1]; 10.0 mg/kg orally) was ~2.8 times, the INF titer ([1]; 10.0 mg/kg orally, (**) p < 0.01 vs control) was 156.7 ± 28.3 IU/mg protein and the “Inhibition (development of solid tumor)” value (Lewis lung carcinoma; 0.1 mg/kg orally once a day) was 6.8%. The Tumor weight (Lewis lung carcinoma; 0.1 mg/kg orally once a day) was 1.77 ± 0.47 g, the “Inhibition (development of solid tumor)” value (Lewis lung carcinoma; 1.0 mg/kg orally once a day) was 46.3% and the Tumor weight (Lewis lung carcinoma; [4]) was 1.02 ± 0.16 g. The “Inhibition (development of solid tumor)” value (Lewis lung carcinoma; 10.0 mg/kg orally once a day) was 28.4%, the Tumor weight (Lewis lung carcinoma; 10.0 mg/kg orally once a day) was 1.36 ± 0.31 g and the “Growth of Lewis lung carcinoma (result in words)” value (Lewis lung carcinoma; 0.1, 1.0 and 10.0 mg/kg orally) was “significantly inhibited the growth of Lewis lung carcinoma”. For the same substance, the “Inhibition (development of solid tumor)” value (Sarcoma 180 tumor cells; 0.1 mg/kg orally once a day) was 28%, the Tumor weight (Sarcoma 180 tumor cells; 0.1 mg/kg orally once a day) was 1.87 ± 0.46 g and the “Inhibition (development of solid tumor)” value (Sarcoma 180 tumor cells; 1.0 mg/kg orally once a day) was 69%. The Tumor weight (Sarcoma 180 tumor cells; [4]) was 0.82 ± 0.22 g, the “Inhibition (development of solid tumor)” value (Sarcoma 180 tumor cells; 10.0 mg/kg orally once a day) was 38% and the Tumor weight (Sarcoma 180 tumor cells; 10.0 mg/kg orally once a day) was 1.61 ± 0.29 g. The “Growth of Sarcoma 180 solid tumor (result in words)” value (Sarcoma 180 tumor cells; 0.1, 1.0 and 10.0 mg/kg orally) was “reduced the growth of Sarcoma 180 solid tumor cells”, the “Inhibition (pocks)” value [2, 5] was 41.0% and the Number of pocks [2, 5] was 23 ± 2. For the same substance, the “Inhibition (pocks)” value ([2]; 10.0 mg/kg orally) was 43.5%, the Number of pocks ([2]; 10.0 mg/kg orally) was 22 ± 4 and the “Host defense against Vaccinia virus (result in words)” value ([2]; orally) was “has host defense function against Vaccinia virus infected mice”. It also gave a s-GPT ([3]; 0.1 mg/kg/day orally) of 382 ± 151 Karmen Unit, a s-GOT ([3]; 0.1 mg/kg/day orally, (*) p < 0.05 vs Control) of 1034 ± 184 and a s-GPT ([3]; 1.0 mg/kg/day orally, (*) p < 0.05 vs Control) of 238 ± 87 Karmen Unit. It also gave a s-GOT ([3]; 1.0 mg/kg/day orally, (***) p < 0.001 vs Control) of 563 ± 133, a s-GPT ([3]; 10.0 mg/kg/day orally, (*) p < 0.05 vs Control) of 275 Karmen Unit and a s-GOT ([3]; 10.0 mg/kg/day orally, (**) p < 0.01 vs Control) of 620 ± 201. The “GOT and GPT values (result in words)” value ([3]; 0.1, 1.0 or 10.0 mg/kg/day orally) was “noticeably decreasing GOT and GPT values”.
